pIC50: −log10 of the molar value. Where two headings read alike, the source gives them in different places.
How the values were obtained:
[1] = Erythrocyte lysis; assay type: cell-based; conditions: erythrocytes, read-out: Selectivity, Mammalian cytotoxicity (IC50; μM) Eryth. Lysis
[2] = Mammalian cytotoxicity, kidney epithelial; assay type: cell-based; conditions: normal human renal proximal tubule cells; read-out: Selectivity, Mammalian cytotoxicity (IC50; μM) Kidney epithelial
[3] = target: T1, hERG (Homo sapiens, UniProt Q12809); assay: hERG in Chinese hamster ovary cells; assay type: cell-based
T1 construct: expressed in transfected cells; host or cells: Chinese hamster ovary cells (from the earlier reading's assay name)
T1 sequence (Q12809 whole entry): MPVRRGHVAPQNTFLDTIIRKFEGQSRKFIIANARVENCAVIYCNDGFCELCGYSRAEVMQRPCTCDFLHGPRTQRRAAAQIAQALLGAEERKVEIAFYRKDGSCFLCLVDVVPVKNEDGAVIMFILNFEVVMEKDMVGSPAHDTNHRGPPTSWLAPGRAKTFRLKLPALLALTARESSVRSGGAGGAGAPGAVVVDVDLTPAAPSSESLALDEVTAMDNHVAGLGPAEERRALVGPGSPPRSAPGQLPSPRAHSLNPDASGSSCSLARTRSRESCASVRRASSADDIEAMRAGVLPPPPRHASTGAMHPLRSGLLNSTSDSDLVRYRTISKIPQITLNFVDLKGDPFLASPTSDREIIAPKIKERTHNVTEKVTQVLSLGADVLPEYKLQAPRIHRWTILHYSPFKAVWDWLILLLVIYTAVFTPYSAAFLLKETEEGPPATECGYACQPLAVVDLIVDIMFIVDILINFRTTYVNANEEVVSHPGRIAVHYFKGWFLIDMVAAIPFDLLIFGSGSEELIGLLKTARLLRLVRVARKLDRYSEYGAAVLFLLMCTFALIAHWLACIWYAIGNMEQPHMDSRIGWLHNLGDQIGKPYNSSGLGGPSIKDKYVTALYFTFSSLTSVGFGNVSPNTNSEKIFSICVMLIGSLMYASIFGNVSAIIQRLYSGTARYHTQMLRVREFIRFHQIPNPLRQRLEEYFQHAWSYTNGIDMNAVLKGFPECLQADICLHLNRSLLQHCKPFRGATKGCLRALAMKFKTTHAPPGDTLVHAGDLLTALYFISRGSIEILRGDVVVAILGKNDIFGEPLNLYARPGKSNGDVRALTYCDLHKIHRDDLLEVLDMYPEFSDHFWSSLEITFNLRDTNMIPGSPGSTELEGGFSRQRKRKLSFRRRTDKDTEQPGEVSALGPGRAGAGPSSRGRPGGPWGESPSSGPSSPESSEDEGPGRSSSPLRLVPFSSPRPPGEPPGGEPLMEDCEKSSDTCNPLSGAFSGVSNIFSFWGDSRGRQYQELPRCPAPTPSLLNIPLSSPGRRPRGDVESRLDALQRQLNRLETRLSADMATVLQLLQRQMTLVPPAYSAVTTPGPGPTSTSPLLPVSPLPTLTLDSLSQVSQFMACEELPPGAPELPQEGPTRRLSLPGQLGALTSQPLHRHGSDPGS

[4] = tested on: P. falciparum strain 3D7; assay: In vitro potency against P. falciparum strain 3D7 (SYBR green/DAPI); assay type: cell-based; conditions: Plasmodium falciparum; for IC50: read-out: Potency (IC50; nM) Plasmodium spp. Pf 3D7; for pIC50: reductions in parasitemia, read-out: IC50 values
[5] = tested on: Plasmodium falciparum strain Dd2; assay: In vitro potency against P. falciparum strain Dd2; assay type: cell-based; conditions: read-out: Potency (IC50; nM) Plasmodium spp. Pf Dd2
[6] = tested on: P. knowlesi strain H1; assay: In vitro potency against P. knowlesi H1 in Rhesus blood cells (3H-hypoxanthine incorporation); assay type: cell-based; conditions: Plasmodium knowlesi, in Macaca mulatta, read-out: Potency (IC50; nM) Plasmodium spp. Pk H1
Method: Selected compounds were tested against P. knowlesi H1 strain parasites cultured in Rhesus blood cells as a surrogate for P. vivax infections using the method of Kocken and coworkers (Kocken, C. H., H. Ozwara, A. van der Wel, A. L. Beetsma, J. M. Mwenda, and A. W. Thomas. 2002. Plasmodium knowlesi provides a rapid in vitro and in vivo transfection system that enables double-crossover gene knockout studies. Infect Immun 70:655-660). Briefly, P. knowlesi were cultured in 2% Rhesus macaque erythrocytes (New England Primate Research Center) in RPMI culture media containing 10% Human O+ serum (Interstate Blood Bank). Schizont stage parasites were purified by floatation in 60% Percoll (GE life sciences) and allowed to reinvade to generate a synchronous population of ring stage parasites. Drug assays were performed by plating ring stage parasites at 0.5% parasitemia in triplicate, in RPMI containing 2.5 μg/ml hypoxanthine. Parasites were incubated for 24 hours with serially diluted test compounds. After 24 hours, thin smears were made to confirm that reinvasion had occurred, 0.5 μCi ^3H-labeled hypoxanthine (Perkin Elmer) were added to each well, and parasites were allowed to progress through S-phase to early schizonts. Cells were then harvested via glass filter plates and ^3H incorporation was measured by scintillation counting. Values were normalized to percentage of controls containing no drug, and IC50 values were generated (GraphPad Prism®).

[7] = Mammalian cytotoxicity, dermal fibroblast; assay type: cell-based; conditions: human, normal human dermal fibroblasts (Clonetics #CC-2509); read-out: Selectivity, Mammalian cytotoxicity (IC50; μM) Dermal Fibroblast
[8] = tested on: P. berghei N-clone; assay: In vivo efficacy against P. berghei in mice (4-day suppressive test, oral); parameters: species or system P. berghei in Swiss Albino mice; conditions: for Average Day of Recrudescence: Study Day; for No. Cured: animals cured/group; for Recrudescence (no. animals/total): no parasites on Day 5 but later regressed; for % Suppression Day 5: vs untreated controls; for % of group without parasites: FIG. 3D; for cures: doses of 100-200 mg/kg/day
Description: Because of ethical issues and costs, the acute P. berghei model in rodents is considered the “gold standard” for assessing anti-malarial efficacy in animal models. This model is adapted from Peters' “4-day suppressive test” (Peters, W. 1987. Chemotherapy and Drug Resistance in Malaria, p. 102-115, 2ed, vol. 1. Academic Press, Orlando, Fla.; Peters, W. 1975. The chemotherapy of rodent malaria, XXII. The value of drug-resistant strains of P. berghei in screening for blood schizontocidal activity. Ann Trop Med Parasitol 69:155-171). All studies were conducted in accordance with the Guide for the Care and Use of Laboratory Animals (National-Research-Council. 1996. Guide for the Care and Use of Laboratory Animals. National Academy Press, Washington, D.C.) and the PHS guidelines. Animals were maintained according to NIH guidelines and were allowed to acclimatize for 1 week prior to the commencement of studies. On Day 0, groups of 4-6-week old female Swiss Albino mice (n=5) were infected by tail vein injection with 0.2 ml heparinized blood diluted to contain 1×10^7 N-clone parasites. The aminoindole analogs were formulated in 1.6% lactic acid mixed sodium salt, 1% Tween 80, 9% ethanol and 20% Cerestar (hydroxypropyl β-cyclodextrin; Wacker Chimie) and were administered by oral gavage. […] Animals in the Control-group received vehicle alone. Dose concentration and frequency of dosing were based upon preliminary tolerability/exposure studies. On Day 4 post-infection (5th day of assay) blood was collected by tail-nick, and thin smear microscope slides were prepared and stained using Diff Quick®. Parasitized erythrocytes were counted and compared with the total number of erythrocytes per microscopic field to determine the percent parasitemia. A minimum of 350 erythrocytes were counted. Animals showing no detectable parasites on Day 4 were examined every 2-3 days to determine whether cure was sterile. Animals with no detectable parasites 28 days after cessation of dosing (Study Day 33) were considered cured.

[9] = tested on: P. berghei ANKA strain; assay: In vitro potency against P. berghei ANKA; assay type: cell-based; conditions: Plasmodium berghei, read-out: Potency (IC50; nM) Plasmodium spp. Pb ANKA
[10] = tested on: malaria; assay: In vivo efficacy in an animal (rodent) model of malaria (FIGS. 1, 2); conditions: 50 mg/kg dose; FIGS. 2A and 2B

CCOc1ccc(F)cc1C1(O)C(N)=Nc2ccc(Cl)cc21 (racemic) [Compound 142, 2-amino-5-chloro-3-(2-ethoxy-5-fluorophenyl)-3H-indol-3-ol]
IC50 [1]: > 125 µM
IC50 [2]: > 195 µM
Selectivity, hERG (μM) CHO [3]: 21 µM
IC50 [4]: 23 nM
pIC50 [4]: 7.00 to 9.00
IC50 [5]: 49 nM
IC50 [6]: 38 nM
IC50 [7]: > 195 µM
Average Day of Recrudescence ([8]; 100 mg/kg/day b.i.d. p.o.): 11 days
No. Cured ([8]; 100 mg/kg/day b.i.d. p.o.): 0/5
Recrudescence (no. animals/total) ([8]; 100 mg/kg/day b.i.d. p.o.): 1/5
% Suppression Day 5 ([8]; 100 mg/kg/day b.i.d. p.o.): 99%
Average Day of Recrudescence ([8]; 200 mg/kg/day b.i.d. p.o.): 13 days
No. Cured ([8]; 200 mg/kg/day b.i.d. p.o.): 3/5
Recrudescence (no. animals/total) ([8]; 200 mg/kg/day b.i.d. p.o.): 1/5
% Suppression Day 5 ([8]; 200 mg/kg/day b.i.d. p.o.): 99%
% of group without parasites ([8]; day 5, 100/mg/kg/day): 20%
% of group without parasites ([8]; day 5, 200/mg/kg/day): 80%
% of group without parasites ([8]; day 30, 200/mg/kg/day): 60%
cures [8]: able to affect cures

CCOc1ccc(F)cc1[C@]1(O)C(N)=Nc2ccc(Cl)cc21 (stereo in doubt) [Compound 266]
IC50 [1]: > 125 µM
IC50 [2]: > 195 µM
IC50 [9]: 342 nM
IC50 [4]: 18 nM
pIC50 [4]: 7.00 to 9.00
IC50 [5]: 58 nM
IC50 [7]: > 195 µM
No. Cured ([8]; 100 mg/kg/day b.i.d. p.o.): 0/5
% Suppression Day 5 ([8]; 100 mg/kg/day b.i.d. p.o.): 81%

NC1=Nc2ccc(Cl)cc2[C@@]1(O)c1ccccc1 [Compound 2]
IC50 [1]: > 155 µM
IC50 [2]: > 242 µM
in vivo efficacy (reducing parasitemia) [10]: efficacious for reducing parasitemia
IC50 [9]: 1360 nM
IC50 [4]: 665 nM
pIC50 [4]: 6.30 to 7.00
IC50 [5]: 1460 nM
IC50 [7]: > 242 µM
No. Cured ([8]; 50 mg/kg/day b.i.d. p.o.): 0/5
% Suppression Day 5 ([8]; 50 mg/kg/day b.i.d. p.o.): 80%

NC1=Nc2ccc(Cl)cc2[C@]1(O)c1ccccc1 [Compound 3]
IC50 [1]: > 155 µM
IC50 [2]: > 242 µM
in vivo efficacy (reducing parasitemia) [10]: efficacious for reducing parasitemia
in vivo efficacy (treatment of malaria) [10]: effectively treated malaria
IC50 [9]: 1690 nM
IC50 [4]: 313 nM
pIC50 [4]: 6.30 to 7.00
IC50 [5]: 675 nM
IC50 [7]: > 242 µM
Average Day of Recrudescence ([8]; 50 mg/kg/day b.i.d. p.o.): 12 days
No. Cured ([8]; 50 mg/kg/day b.i.d. p.o.): 2/5
Recrudescence (no. animals/total) ([8]; 50 mg/kg/day b.i.d. p.o.): 3/5
% Suppression Day 5 ([8]; 50 mg/kg/day b.i.d. p.o.): 100%
No. Cured ([8]; 100 mg/kg/day b.i.d. p.o.): 5/5
% Suppression Day 5 ([8]; 100 mg/kg/day b.i.d. p.o.): 100%
cures [8]: able to affect cures

Cc1ccc2c(c1)C(O)(c1ccccc1)C(N)=N2 (stereo not shown) [Compound 37]
IC50 [1]: > 168 µM
IC50 [2]: > 62.5 µM
IC50 [4]: 183 nM
pIC50 [4]: 7.00 to 9.00
IC50 [5]: 455 nM
IC50 [6]: 318 nM
IC50 [7]: > 62.5 µM
Average Day of Recrudescence ([8]; 100 mg/kg/day b.i.d. p.o.): 17 days
No. Cured ([8]; 100 mg/kg/day b.i.d. p.o.): 3/5
Recrudescence (no. animals/total) ([8]; 100 mg/kg/day b.i.d. p.o.): 2/5
% Suppression Day 5 ([8]; 100 mg/kg/day b.i.d. p.o.): 100%
No. Cured ([8]; 200 mg/kg/day b.i.d. p.o.): 5/5
% Suppression Day 5 ([8]; 200 mg/kg/day b.i.d. p.o.): 100%
cures [8]: able to affect cures

CC(C)C1(O)C(N)=Nc2ccc(Cl)cc21 (stereo not shown) [Compound 39]
IC50 [1]: > 178 µM
IC50 [2]: > 62.5 µM
IC50 [9]: 2990 nM
IC50 [4]: 108 nM
pIC50 [4]: 6.30 to 7.00
IC50 [5]: 347 nM
IC50 [6]: 190 nM
IC50 [7]: > 62.5 µM
Average Day of Recrudescence ([8]; 50 mg/kg/day b.i.d. p.o.): 10 days
No. Cured ([8]; 50 mg/kg/day b.i.d. p.o.): 0/5
Recrudescence (no. animals/total) ([8]; 50 mg/kg/day b.i.d. p.o.): 3/5
% Suppression Day 5 ([8]; 50 mg/kg/day b.i.d. p.o.): 98%
Average Day of Recrudescence ([8]; 100 mg/kg/day b.i.d. p.o.): 13 days
No. Cured ([8]; 100 mg/kg/day b.i.d. p.o.): 0/5
Recrudescence (no. animals/total) ([8]; 100 mg/kg/day b.i.d. p.o.): 3/5
% Suppression Day 5 ([8]; 100 mg/kg/day b.i.d. p.o.): 99%

CC(C)Oc1ccccc1C1(O)C(N)=Nc2ccc(Cl)cc21 (stereo not shown) [Compound 146]
IC50 [1]: > 120 µM
IC50 [2]: > 188 µM
Selectivity, hERG (μM) CHO [3]: 19 µM
IC50 [4]: 22 nM
pIC50 [4]: 7.00 to 9.00
IC50 [5]: 37 nM
IC50 [6]: 90 nM
IC50 [7]: > 188 µM
Average Day of Recrudescence ([8]; 100 mg/kg/day b.i.d. p.o.): 6 days
No. Cured ([8]; 100 mg/kg/day b.i.d. p.o.): 0/5)
Recrudescence (no. animals/total) ([8]; 100 mg/kg/day b.i.d. p.o.): 1/5
% Suppression Day 5 ([8]; 100 mg/kg/day b.i.d. p.o.): 99%

COc1cc(C2(O)C(N)=Nc3ccc(Cl)cc32)c(OC)cn1 (stereo not shown) [Compound 202]
IC50 [1]: > 125 µM
IC50 [2]: > 195 µM
IC50 [4]: 21 nM
pIC50 [4]: 7.00 to 9.00
IC50 [5]: 81 nM
IC50 [7]: > 195 µM
No. Cured ([8]; 100 mg/kg/day b.i.d. p.o.): 0/5
% Suppression Day 5 ([8]; 100 mg/kg/day b.i.d. p.o.): 95%
Average Day of Recrudescence ([8]; 200 mg/kg/day b.i.d. p.o.): 17 days
No. Cured ([8]; 200 mg/kg/day b.i.d. p.o.): 0/5
Recrudescence (no. animals/total) ([8]; 200 mg/kg/day b.i.d. p.o.): 2/5
% Suppression Day 5 ([8]; 200 mg/kg/day b.i.d. p.o.): 98%

From patent publication US8980926B2, “2-aminoindole compounds and methods for the treatment of malaria” (Genzyme Corporation, priority 2009, dated 2015)
